Data reported in patent EP0462123B1, “UV-ABSORBING COMPOUNDS AND COMPOSITIONS” (AUSTRALIAN INSTITUTE OF MARINE SCIENCE, priority 1989, dated 1990).

Key:
[1] = log P (octanol/water partition coefficient) by HPLC method of Leahy, Taylor and Wait; format: physicochemical; settings: octanol in conjunction with water
From the text: Water resistance of compounds of formula I may be evaluated by reference to the partition coefficient of the compounds using a non-polar solvent such as octanol in conjunction with water. The term log P, where P is the partition coefficient, where used herein refers to the log P value determined by the HPLC method of David E Leahy, Peter J Taylor and Alan R Wait, Ouant. Struct.-Act Relat., 8, 17-31 (1989) at pages 23 and 24. Log P may be used to directly compare the lipophilicity of a variety of molecules as described by Hansch, C., and Leo, A. J., Substituent Constants for Correlation Analysis in Chemistry and Biology, John Wiley, New York 1979.
Struct. Act Relat., 8, 17-31 (1989) and the results are recorded in Table 6.

[2] = E1%: relative UV absorbance of a 1% w/w solution; format: physicochemical; settings: relative measure of the UV absorbance of a 1% w/w solution of the compound
From the text: This example compares the ultraviolet light absorbing properties and water resistance properties of compounds of the invention.
E1% is a relative measure of the UV absorbance of a 1% w/w solution of the compound.

Row | chromatographic logP [1] | E1% [2] | Structure (SMILES)
1 | 6.3 |  | CCCCCCCCCC(=O)C1=CN(C(C)C)CCC1(C)C [Compound 15, 1-(-Methylethyl)-3 decanoyl--4,4-dimethyl-1,4,5,6-tetrahydropyridine]
2 | 6.9 | 91 | CCCCCCCCCC(=O)C1=CN(CC(C)C)CCC1(C)C [Compound 16, 1-(2-Methylpropyl) -3-decanoyl--4,4-dimethyl-1,4,5,6-tetrahydropyridine]
3 | 6.3 | 95 | CCCCCCCCCCCC(=O)C1=CN(C)CCC1(C)C [Compound 17, 1-Methyl-3-lauroyl--4,4-dimethyl 4,5,6-tetrahydropyridine]
4 | 6.3 | 95 | CCCCCCCCCCN1C=C(C(=O)CC)C(C)(C)CC1 [Compound 18, 1-Decyl-3-propionyl--4,4-dimethyl-1,4,5,6-tetrahydropyridine]
5 | 6.9 | 91 | CCCCCCCC(=O)C1=CN(C2CCCCC2)CCC1(C)C [Compound 19, 1-Cyclohexyl-3-octanoyl-4,4-dimethyl-1,4,5,6-tetrahydropyridine]
6 | 6.9 | 91 | CCCCCCCCCC(=O)C1=CN(C(C)(C)C)CCC1(C)C [Compound 20, 1-(1,1-Dimethyl-ethyl)-3-decanoyl--4,4-dimethyl-1,4,5,6-tetrahydropyridine]
7 | 5.8 | 100 | CCCCCCCC(=O)C1=CN(C(C)(C)C)CCC1(C)C [Compound 21, 1-(1,1-Dimethyl-ethyl)-3-octanoyl-4,4-dimethyl-1,4,5,6-tetrahydropyridine]
8 | 4.8 | 110 | CCCCCC(=O)C1=CN(C(C)(C)C)CCC1(C)C [Compound 22, 1-(1,1-Dimethyl-ethyl) -3-hexanoyl-4,4-dimethyl-1,4,5,6-tetrahydropyridine]
9 | 5.3 | 105 | CCCCCCCC(=O)C1=CN(C(C)C)CCC1(C)C [Compound 23, 1-(1-Methylethyl)-3-octanoyl-4,4-dimethyl-1,4,5,6-tetrahydropyridine]
10 | 9.4 | 131 | CC(C)CN1C=C(C(=O)CCCCC(=O)C2=CN(CC(C)C)CCC2(C)C)C(C)(C)CC1 [Compound 24]

More lines, now with the values behind:

Row | Structure (SMILES) | chromatographic logP [1] | E1% [2]
11 | CCC(=O)C1=CN(CC(C)C)CCC1(C)C [Compound 1, I-(2-Methylpropyl)-3-propionyl-4,4-dimethyl-1,4,5,6-tetrahydropyridine] | 3.2 | 131
12 | CC(=O)C1=CN(CC(C)C)CCC1(C)C [Compound 2, I-(2-Methylpropyl) -3-acetyl-4,4-dimethyl-1,4,5,6-tetrahydropyridine] | 2.7 | 140
13 | CCCC(=O)C1=CN(CC(C)C)CCC1(C)C [Compound 3, 1-(2-Methylpropyl) -3-butyryl-4,4-dimethyl-1,4,5,6-tetrahydropyridine] | 3.7 | 124
14 | CC(C)CN1C=C(C(=O)C(F)(F)F)C(C)(C)CC1 [Compound 4, 1-(2-Methylpropyl) -3-trifluoroacetyl-4,4-dimethyl-1,4,5,6-tetrahydropyridine] | 3 | 112
15 | CCCCCCCC(=O)C1=CN(CC(C)C)CCC1(C)C [Compound 5, 1-(2-Methylpropyl) -3-octanoyl-4,4-dimethyl-1,4,5,6-tetrahydropyridine] | 5.8 | 100
16 | CCCCCCCCCCCCCCCCN1C=C(C(=O)CC)C(C)(C)CC1 [Compound 6, 1-Palmityl-3-propionyl-4,4-dimethyl-1,4,5,6-tetrahydropyridine] | 9.4 | 75
17 | CCCCCCCC(=O)C1=CN(CC)CCC1(C)C [Compound 7, 1-Ethyl-3-octanoyl--4,4-dimethyl-1,4,5,6-tetrahydropyridine] | 4.8 | 110
18 | CCCCC(CC)CN1C=C(C(=O)CC)C(C)(C)CC1 (centres unmarked) [Compound 8, 1-(2-Ethylhexyl)-3-propionyl-4,4-dimethyl-1,4,5,6-tetrahydropyridine] | 5.3 | 105
19 | CCCCCCCCCC(=O)C1=CN(CC)CCC1(C)C [Compound 9, I-Ethyl-3-decanoyl--4,4-dimethyl-1,4,5,6-tetrahydropyridine] | 5.8 | 100
20 | CCCCCCCCCCCCCCCC(=O)C1=CN(CC)CCC1(C)C [Compound 10, 1-Ethyl-3-palmitoyl--4,4-dimethyl-1,4,5,6-tetrahydropyridine] | 8.9 | 77
21 | CCCCCCCCCCCCCC(=O)C1=CN(C)CCC1(C)C [Compound 11, 1-Methyl-3-myristoyl-4,4-dimethyl-1,4,5,6-tetrahydropyridine] | 7.4 | 87
22 | CCCCCCCC(=O)C1=CN(CCCCCCC)CCC1(C)C [Compound 12, 1-Heptyl-3-octanoyl-4,4-dimethyl--1,4,5,6-tetrahydropyridine] | 7.4 | 87
23 | CCCCC(CC)COC(=O)CCC(=O)C1=CN(CC)CCC1(C)C (centres unmarked) [Compound 13, 1-Ethyl-3(2-ethyl-hexylsuccinoyl)--4,4-dimethyl-1,4,5,6-tetrahydropyridine] | 6.9 | 87
24 | CCCCCCCCCC(=O)C1=CN(CCC)CCC1(C)C [Compound 14, 1-Propyl-3-decanoyl-4,4-dimethyl-1,4,5,6-tetrahydropyridine] | 6.3 | 95
